The experiment relates to dermal papilla cells. The experiment can be described thus: Measurement of viability of dermal papilla cells (MTT); promotion of growth of dermal papilla cells. Type of experiment: cell-based, human. As to conditions: 24 hours culture, MTT absorbance at 570 nm, Control = 100. How it is done:
For cell culture, Dulbecco's Modified Eagle Medium (DMEM), fetal bovine serum (FBS), 0.25% trypsin-1 mM EDTA, and penicillin-streptomycin were used, and dermal papilla cells were cultured at 37° C. in a humidified 5% CO2. The medium was replaced twice a week, and the cultured dermal papilla cells were washed with PBS within 6-7 days. Next, the attached cells were separated by 0.05% trypsin-0.02% EDTA, centrifuged, and then subcultured for experiments. Specifically, 200 μl of dermal papilla cells were dispensed into each well of a 96-well plate at a density of 1×10^4 cells/well, and cultured under the conditions of 37° C. and 5% CO2 for 18 hours so as to be attached to each well. After 18 hours, the medium was removed, and 200 μl of samples was added to each well having the cells attached thereto, followed by culture for 24 hours. After the medium was removed, 100 μl of a solution of 3-(4,5-dimethylthiazol)-2,5-diphenyltetrazoliumbromide(MTT), prepared by dissolving MTT in PBS at a concentration of 500 μg/ml, was added to the cultured cells, followed by culture for 4 hours under the same conditions as described above. The formed formazan crystal was dissolved in DMSO, and the absorbance at 570 nm was measured using an ELISA reader. The measured OD values ranging from 0.00 to 3.50 were used for the experimental results. The sample for treatment of the cells was used at concentrations of 0.5, 5 and 50 μM.

Turning to `CCC(C)C(=O)SCCNC(=O)CCNC(=O)[C@H](O)C(C)(C)CO` (stereo partly drawn) [S1, 2-methylbutyryl-D-pantetheine], the “Effect on the growth of dermal papilla cells” value (from here on “Effect on the growth”) (0.5 μM sample) came out at 113.31, the “Effect on the growth” value (5 μM sample) came to 129.65 and the “Effect on the growth” value (50 μM sample) was found to be 139.19.

As for `CC(C)CC(=O)SCCNC(=O)CCNC(=O)[C@H](O)C(C)(C)CO` [S2, 3-methylbutyryl-D-pantetheine], the “Effect on the growth” value reads like this: (0.5 μM sample) 121.04; (5 μM sample) 114.65; (50 μM sample) 121.28.

With `C=CCCC(=O)SCCNC(=O)CCNC(=O)[C@H](O)C(C)(C)CO` [S4, 4-pentenoyl-D-pantetheine], the “Effect on the growth” value (0.5 μM sample) is listed as 116.88, the “Effect on the growth” value (5 μM sample) is 122.89 and the “Effect on the growth” value (50 μM sample) stood at 111.97.

For the compound `C=CCCCCCCCCC(=O)SCCNC(=O)CCNC(=O)[C@H](O)C(C)(C)CO` [S5, 10-undecenoyl-D-pantetheine], the “Effect on the growth” value stood at 111.24 (0.5 μM sample), 93.01 (5 μM sample) and 101.62 (50 μM sample).

As for `CC(C)(CO)[C@@H](O)C(=O)NCCC(=O)NCCSC(=O)c1ccc(O)cc1O` [S7, 2,4-dihydroxybenzoyl-D-pantetheine], the “Effect on the growth” value is, setting by setting: (0.5 μM sample) 95.73; (5 μM sample) 97.32; (50 μM sample) 93.12.

For the compound `Nc1cc(N2CCCCC2)nc(N)[n+]1[O-]` [minoxidil, reference compound], the “Effect on the growth” value reads like this: (0.5 μM sample) 146.66; (5 μM sample) 146.52; (50 μM sample) 140.29.

Regarding cinnamoyl-D-pantetheine [S3], the “Effect on the growth” value by setting is: (0.5 μM sample) 119.77; (5 μM sample) 122.38; (50 μM sample) 133.33.

Turning to isobutyl formate-D-pantetheine [S6], the “Effect on the growth” value (0.5 μM sample) was found to be 130.57, the “Effect on the growth” value (5 μM sample) is recorded as 112.94 and the “Effect on the growth” value (50 μM sample) is on record as 135.95.
